Measurements from patent US7241791B2, “Substituted 4-(indazol-3-yl)phenols” (Wyeth, priority 2002, dated 2007).

Experiments:
human ERα [1] = target: T1, human ERα (Homo sapiens, UniProt P03372); test: NF-κB luciferase reporter (ER/NF-KB-luc) in Ad5-wt-hERα infected HAECT-1 cells; conditions: for IC50: ER/NF-KB-luc IC50, Ad5-wt-ER infected HAECT-1 cells, IL-1β; for Emax: HAECT1, read-out: ER/NF-KB-luc % E2, efficacy relative to the maximal inhibition observed with E2
T1 sequence (P03372 1-595): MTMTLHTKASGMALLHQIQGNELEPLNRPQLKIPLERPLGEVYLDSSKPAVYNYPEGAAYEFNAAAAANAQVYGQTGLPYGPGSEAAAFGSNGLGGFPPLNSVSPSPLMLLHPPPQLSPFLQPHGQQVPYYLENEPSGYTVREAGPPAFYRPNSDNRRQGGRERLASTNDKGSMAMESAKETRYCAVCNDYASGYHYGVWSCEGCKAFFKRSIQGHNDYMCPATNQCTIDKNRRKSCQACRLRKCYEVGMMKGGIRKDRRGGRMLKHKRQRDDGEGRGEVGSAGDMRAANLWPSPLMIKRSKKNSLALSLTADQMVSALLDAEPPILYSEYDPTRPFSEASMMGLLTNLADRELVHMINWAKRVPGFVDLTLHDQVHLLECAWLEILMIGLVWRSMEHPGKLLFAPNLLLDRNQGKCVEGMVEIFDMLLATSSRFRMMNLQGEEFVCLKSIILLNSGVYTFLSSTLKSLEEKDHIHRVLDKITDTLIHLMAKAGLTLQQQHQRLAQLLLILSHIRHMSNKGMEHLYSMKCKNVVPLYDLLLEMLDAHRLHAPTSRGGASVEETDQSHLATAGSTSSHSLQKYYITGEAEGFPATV

human ERα [2] = target: T1, human ERα; test: Creatine kinase expression (ER/CK) in Ad5-wt-hERα infected HAECT-1 cells; conditions: for ER/CK % E2: efficacy relative to the maximal stimulation observed with E2

Row | Compound | IC50 (human ERα [1]) [nM] | Emax (human ERα [1]) [%] | EC50 (human ERα [2]) [nM] | ER/CK % E2 (human ERα [2]) [% E2]
1 | Cc1cc(O)ccc1-c1nn(C(C)C)c2c(Cl)cccc12 [Example 77, 4-(7-chloro-1-isopropyl-1H-indazol-3-yl)-3-methylphenol] | 41 | 87 | 302 | 29
2 | C=CCn1nc2c(C(F)(F)F)cccc2c1-c1ccc(O)cc1C [Example 72, 4-[2-allyl-7-(trifluoromethyl)-2H-indazol-3-yl]-3-methylphenol] | 7 | 85 | 140 | 46
3 | Oc1ccc(-c2nn(C3CCCCC3)c3c(F)cccc23)cc1 [Example 33, 4-(1-cyclohexyl-7-fluoro-1H-indazol-3-yl)phenol] | 37 | 92 | 51 | 34
4 | Cc1cccc2c(-c3ccc(O)cc3)n(C(C)C)nc12 [Example 40, 4-[2-isopropyl-7-methyl-2H-indazol-3-yl]phenol] |  | 108 | 22 | 79
5 | CCC(CC)Cn1nc(-c2ccc(O)cc2O)c2cccc(C(F)(F)F)c21 [Example 69, 4-[1-(2-ethylbutyl)-7-(trifluoromethyl)-1H-indazol-3-yl]benzene-1,3-diol] | 235 | 68 | 704 | 32
6 | CCCCCn1nc(-c2ccc(O)cc2)c2cccc(Cl)c21 [Example 41, 4-(7-chloro-1-pentyl-1H-indazol-3-yl)phenol] | 95 | 85 | 415 | 39
7 | CC(C)n1nc(-c2ccc(O)cc2)c2cccc(F)c21 [Example 55, 4-(7-fluoro-1-isopropyl-1H-indazol-3-yl)phenol] | 26 | 90 | 401 | 49
8 | CC(C)n1nc(-c2ccc(O)cc2)c2cccc(Cl)c21 [Example 45, 4-(7-chloro-1-isopropyl-1H-indazol-3-yl)pheno] | 31 | 86 | 121 | 43
9 | Cc1cccc2c(-c3ccc(O)cc3)nn(C(C)C)c12 [Example 39, 4-(1-isopropyl-7-methyl-1H-indazol-3-yl)phenol] | 9 | 89 | 57 | 46
10 | CCCCCn1nc(-c2ccc(O)cc2O)c2cccc(C(F)(F)F)c21 [Example 73, 4-[1-pentyl-7-(trifluoromethyl)-1H-indazol-3-yl]benzen-1,3-diol] | 94 | 76 | 103 | 19
11 | CCCn1nc(-c2ccc(O)cc2C)c2cccc(C(F)(F)F)c21 [Example 76, 3-methyl-4-[1-propyl-7-(trifluoromethyl)-1H-indazol-3-yl]phenol] | 22 | 86 | 57 | 20
12 | Oc1ccc(-c2c3cccc(F)c3nn2C2CCCC2)cc1 [Example 61, 4-(2-cyclopentyl-7-fluoro-2H-indazol-3-yl)phenol] | 50 | 62 | 76 | 33
13 | CCCn1nc(-c2ccc(O)cc2)c2cccc(C(F)(F)F)c21 [Example 48, 4-[1-propyl-7-(trifluoromethyl)-1H-indazol-3-yl]phenol] | 42 | 107 | 79 | 49
14 | Oc1ccc(-c2nn(C3CCCC3)c3c(C(F)(F)F)cccc23)c(O)c1 [Example 66, 4-[1-cyclopentyl-7-(trifluoromethyl)-1H-indazol-3-yl] benzene-1,3-diol] | 29 | 56 | 17 | 32
15 | C=CCn1nc(-c2ccc(O)cc2)c2cccc(C(F)(F)F)c21 [Example 58, 4-[1-allyl-7-(trifluoromethyl)-1H-indazol-3-yl]phenol] | 20 | 100 | 97 | 38

The next lines start with the values.

Row | IC50 (human ERα [1]) [nM] | Emax (human ERα [1]) [%] | EC50 (human ERα [2]) [nM] | ER/CK % E2 (human ERα [2]) [% E2] | Compound
16 | 349 | 95 | 1320 | 92 | Cn1nc(-c2ccc(O)cc2O)c2cc(F)ccc21 [Example 172, 4-(5-fluoro-1-methyl-1H-indazol-3-yl)benzene-1,3-di]
17 | 487 | 100 | 1260 | 42 | CCCCn1nc(-c2ccc(O)cc2)c2ccc(Cl)cc21 [Example 199, 4-(1-butyl-6-chloro-1H-indazol-3-yl)phenol]
18 | 443 | 121 | 2930 | 71 | Oc1ccc(-c2nn(Cc3ccccc3)c3ccc(C(F)(F)F)cc23)c(O)c1 [Example 182, 4-[1-benzyl-5-(trifluoromethyl)-1H-indazol-3-yl]benzene-1,3-diol]
19 | 68 | 77 | 213 | 35 | Cc1cc(O)ccc1-c1nn(C2CCCC2)c2c(-c3cc4ccccc4s3)cccc12 [Example 266, 4-[7-(1-benzothien-2-yl)-1-cyclopentyl-1H-indazol-3-yl]-3-methylphenol]
20 | 515 | 106 | 1120 | 59 | OCCn1nc(-c2ccc(O)cc2)c2ccccc21 [Example 158, 4-[1-(2-hydroxyethyl)-1H-indazol-3-yl]phenol]
21 | 196 | 117 | 1070 | 48 | Oc1ccc(-c2n[nH]c3c(F)cccc23)cc1 [Example 203, 4-(7-fluoro-1H-indazol-3-yl)phenol]
22 | 18 | 73 | 143 | 38 | Cc1cc(O)ccc1-c1nn(C2CCCC2)c2c(-c3ccc(O)c(O)c3)cccc12 [Example 259, 4-[1-cyclopentyl-3-(4-hydroxy-2-methylphenyl)-1H-indazol-7-yl]benzene-1,2-diol]
23 | 587 | 111 | 1040 | 70 | Cn1nc(-c2ccc(O)c(O)c2)c2cccc(C(F)(F)F)c21 [Example 176, 4-[1-methyl-7-(trifluoromethyl)-1H-indazol-3-yl]benzene-1,2-diol]
24 | 473 | 84 | 902 | 27 | CCCCn1nc(-c2ccc(O)cc2)c2cc(C(F)(F)F)ccc21 [Example 206, 4-[1-butyl-5-(trifluoromethyl)-1H-indazol-3-yl]phenol]
25 | 92 | 93 | 734 | 52 | CCCn1nc2c(Cl)cccc2c1-c1ccc(O)cc1C [Example 79, 4-(7-chloro-2-propyl-2H-indazol-3-yl)-3-methylphenol]
26 | 371 | 87 | 608 | 51 | OCCn1nc(-c2ccc(O)cc2O)c2cc(F)ccc21 [Example 192, 4-[5-fluoro-1-(2-hydroxyethyl)-1H-indazol-3-yl]benzene-1,3-diol]
27 | 33 | 92 | 308 | 62 | Cc1cc(O)ccc1-c1c2cccc(Cl)c2nn1C(C)C [Example 81, 4-(7-chloro-2-isopropyl-2H-indazol-3-yl)-3-methylphenol]
28 | 32 | 87 | 309 | 20 | CC(C)n1nc(-c2ccc(O)cc2)c2cccc(-c3ccsc3)c21 [Example 226, 4-(1-isopropyl-7-thien-3-yl-1H-indazol-3-yl)phenol]
29 | 897 | 76 | 1930 | 36 | Oc1ccc(-c2n[nH]c3cc(Cl)ccc23)cc1 [Example 134, 4-(6-chloro-1H-indazol-3-yl)phenol]
30 | 12 | 70 | 17 | 42 | Cc1cc(O)ccc1-c1nn(C(C)C)c2c(-c3ccsc3)cccc12 [Example 247, 4-(1-isopropyl-7-thien-3-yl-1H-indazol-3-yl)-3-methylphenol]
31 | 539 | 160 | 1840 | 68 | Oc1ccc(-c2n[nH]c3ccccc23)cc1O [Example 202, 4-(1H-indazol-3-yl)benzene-1,2-diol]
32 | 311 | 83 | 588 | 29 | Cn1nc(-c2ccc(O)cc2O)c2cccc(C(F)(F)F)c21 [Example 167, 4-[1-methyl-7-(trifluoromethyl)-1H-indazol-3-yl]benzene-1,3-diol]
33 | 56 | 70 | 279 | 21 | CC(C)n1nc(-c2ccc(O)cc2)c2cccc(-c3cccs3)c21 [Example 227, 4-(1-isopropyl-7-thien-2-yl-1H-indazol-3-yl)phenol]
